Assay results: patent publication US20090105234A1, “EP4 Receptor Agonist, Compositions and Methods Thereof” (priority 2005, published 2009)

Tests used:
[1] = Ocular adverse effects (conjuctival hyperemia, partial eye closure, etc.); format: in vivo, Cynomolgus Monkeys; settings: versus Example 2 of WO 2004/085430
[2] = Ocular tolerability in animal species compared to compounds of WO 2004/085430; format: in vivo; settings: compared to compounds disclosed in WO 2004/085430 (i.e., Example 2)
[3] = Vehicle panel-controlled 5 day ocular tolerability study (topical, bilateral, b.i.d); format: in vivo, Dutch-Belted rabbits; settings: 5 days, 2.2 μM (25 μL) ophthalmic solution
[4] = Eye closure after ocular dosing; format: in vivo, New Zealand White rabbits; settings: versus Example 2 of WO 2004/085430
[5] = tested on: EP4 mRNA in RP-1 periosteal cells; assay: EP4 mRNA levels (Northern blot) in RP-1 periosteal cells; format: cell-based, rat; settings: 10^−6 M
Description: (§1) RP-1 periosteal cells are spontaneously immortalized from primary cultures of periosteal cells from tibae of 4-week old Sprague-Dawley rats and are cultured in DMEM (BRL, Gaithersburg, Md.) with 10% fetal bovine serum (JRH Biosciences, Lenexa, Kans.).
(§2) Total RNA is extracted from the tibial metaphysis or diaphysis and calvaria using a guanidinium isothiocyanate-phenol-chloroform method after pulverizing frozen bone samples by a tissue homogenizer. See P. Chomczynski et al., Single-step method of RNA isolation by acid guanidium thiocyanate-phenol-chloroform extraction., Analyt Biochem, 162, 156-159 (1987), which is incorporated by reference herein in its entirety. RNA samples ([…]) are separated on 0.9% agarose/formaldehyde gels and transferred onto nylon membranes (Boehringer Mannheim, Germany). Membranes are prehybridized in Hybrisol I (Oncor, Gaithersburg, Md.) and 0.5 mg/ml sonicated salmon sperm DNA (Boehringer) at 42° C. for 3 hours and are hybridized at 42° C. with rat EP2 and mouse EP4 cDNA probes labeled with [^32P]-dCTP (Amersham, Buckinghamshire, UK) by random priming using the rediprime kit (Amersham). After hybridization, membranes are washed 4 times in 2×SSC+0.1% SDS at room temperature for a total of 1 hour and once with 0.2×SSC+0.1% SDS at 55° C. for 1 hour and then exposed to Kodak XAR 2 film at −70° C. using intensifying screens. […]

EP2 mRNA in bone tissue = assay: EP2 mRNA in vivo in bone tissue after systemic PGE2; settings: rats, systemic administration
Description: (§3) For mRNA localization experiments, 5-week old Sprague-Dawley rats (Charles River) are euthanized by CO2, their tibiae and calvariae are excised, cleaned of soft tissues and frozen immediately in liquid nitrogen. For EP4 regulation experiments, 6-week old rats are given a single injection of either vehicle (7% ethanol in sterile water) or an anabolic dose of PGE2 (Cayman Chemical, Ann Arbor, Mich.), 3-6 mg/kg in the same vehicle) intraperitoneally. Animals are euthanized at several time points post-injection and their tibiae and calvariae, as well as samples from lung and kidney tissues are frozen in liquid nitrogen.
Total RNA is extracted from the tibial metaphysis or diaphysis and calvaria using a guanidinium isothiocyanate-phenol-chloroform method after pulverizing frozen bone samples by a tissue homogenizer. See P. Chomczynski et al., Single-step method of RNA isolation by acid guanidium thiocyanate-phenol-chloroform extraction., Analyt Biochem, 162, 156-159 (1987), which is incorporated by reference herein in its entirety. RNA samples ([…]) are separated on 0.9% agarose/formaldehyde gels and transferred onto nylon membranes (Boehringer Mannheim, Germany). […]

[6] = tested on: EP4 mRNA in bone marrow cells; assay: In situ hybridization, localization of EP4 expression in bone; format: in vivo; settings: single anabolic dose, versus vehicle-injected rats
Description: as §3
Frozen tibiae are sectioned coronally at […] thickness and sections are mounted on charged slides (Probe On Plus, Fisher Scientific, Springfield, N.J.) and are kept at −70° C. until hybridization. cRNA probes are labeled with ^35S-UTPgS (ICN, Costa Mesa, Calif.) using a Riboprobe II kit (Promega Madison, Wis.). Hybridization is performed overnight at 50° C. See M. Weinreb et al., Different pattern of alkaline phosphalase, osteopontin and osteocalcin expression in developing rat bone visualized by in-situ hybridization, J. Bone Miner Res., 5, 83′-842 (1990) and D. Shinar et al., Expression of alphav and beta3 integrin subunits in rat osteoclasts in situ, J. Bone Miner. Res., 8, 403-414 (1993), which are both incorporated by reference herein in their entirety. […]

EP2 mRNA in RP-1 cells = assay: EP2 mRNA expression (Northern blot) in RP-1 cells; format: cell-based, rat
Description: as §1, §2

TRAB-11 cells = assay: Intracellular cAMP in osteoblastic cells; format: cell-based, rat
Description: (§4) RCT-1 and RCT-3 are clonal cell lines immortalized by SV40 large T antigen from cells released from fetal rat calvair by a cmbination collagenase/hyaluronidase digestion. RCT-1 cells, derived from cells released during the first 10 minutes of digestion (fraction I), are cultured in RPMI 1640 medium (BRL) with 10% fetal bovine serum and 0.4 mg/ml G418 (BRL). These cells differentiate and express osteoblastic features upon retinoic acid treatment. RCT-3 cells, immortalized from osteoblast-enriched fraction III cells, are cultured in F-12 medium (BRL) with 5% Fetal bovine serum and 0.4 mg/ml G418. TRAB-11 cells are also immortalized by SV40 large T antigen from adult rat tibia and are cultured in RPMI 1640 medium with 10% FBS and 0.4 mg/ml G418. ROS 17/2.8 rat osteosarcoma cells are cultured in F-12 containing 5% FBS. Osteoblast-enriched (fraction III) primary fetal rat calvaria cells are obtained by collagenase/hyaluronidase digestion of calvariae of 19 day-old rat fetuses. See Rodan et al., Growth stimulation of rat calvaria osieoblastic cells by acidic FGF, Endocrinology, 121, 1919-1923 (1987), which is incorporated by reference herein in its entirety. Cells are released during 30-50 minutes digestion (fraction III) and are cultured in F-12 medium containing 5% FBS. […]

RCT-3 cells = assay: Intracellular cAMP in osteoblastic cells; format: cell-based, rat
Description: as §4

ROS 17/2.8 cells = assay: Intracellular cAMP in osteoblastic cells; format: cell-based; settings: ROS 17/2.8 rat osteosarcoma cells
Description: as §4

EP4 mRNA in RCT-3 cells = assay: EP4 mRNA levels (Northern blot) in RCT-3 cells; format: cell-based, rat
Description: as §4

EP4 mRNA in bone tissue = assay: EP4 mRNA levels in vivo in bone tissue after systemic PGE2; settings: five-week-old male rats, injected 3-6 mg/Kg
Text: For mRNA localization experiments, 5-week old Sprague-Dawley rats (Charles River) are euthanized by CO2, their tibiae and calvariae are excised, cleaned of soft tissues and frozen immediately in liquid nitrogen. […] Animals are euthanized at several time points post-injection and their tibiae and calvariae, as well as samples from lung and kidney tissues are frozen in liquid nitrogen.
as §2, with “(Amersham).” for “(Amersham). After hybridization, membranes are washed 4 times in 2×SSC+0.1% SDS at room temperature for a total of 1 hour and once with 0.2×SSC+0.1% SDS at 55° C. for 1 hour and then exposed to Kodak XAR 2 film at −70° C. using intensifying screens.”

| Compound | improvement in ocular adverse effects (conjuctival hyperemia, partial eye closure, etc.) [1] | ocular tolerability [2] | drug treatment related findings [3] | improvement in eye closure [4] | effect on EP4 mRNA levels [5] | time of peak EP4 mRNA levels after treatment [5] | induction of EP2 mRNA in bone tissue (EP2 mRNA in bone tissue) | expression of EP4 in bone marrow cells [6] | EP2 mRNA expression before or after treatment (EP2 mRNA in RP-1 cells) | effect on intracellular cAMP (TRAB-11 cells) | effect on intracellular cAMP (RCT-3 cells) | effect on intracellular cAMP (ROS 17/2.8 cells) | effect on EP4 mRNA levels (EP4 mRNA in RCT-3 cells) | effect on EP4 mRNA levels in the tibial diaphysis (EP4 mRNA in bone tissue) | time of peak EP4 mRNA levels in the tibial diaphysis after injection (EP4 mRNA in bone tissue) |
| --- | --- | --- | --- | --- | --- | --- | --- | --- | --- | --- | --- | --- | --- | --- | --- |
| CC(C)OC(=O)c1ccc(CCCN2C(=O)OCC[C@@H]2/C=C/[C@@H](O)C(F)(F)c2cccc(Br)c2)s1 [Example 1, Isopropyl 5-(3-{(4R)-4-[(1E,3R)-4-(3-bromophenyl)-4,4-difluoro-3-hydroxybut-1-en-1-yl]-2-oxo-1,3-oxazinan-3-yl}propyl)thiophene-2-carboxylate] | 3-5 fold | improved ocular tolerability | no drug treatment related findings | 5 fold | – | – | – | – | – | – | – | – | – | – | – |
| CCCCC[C@H](O)/C=C/[C@H]1[C@H](O)CC(=O)[C@@H]1C/C=C\CCCC(=O)O [PGE2] | – | – | – | – | rapidly increases EP4 mRNA levels | 2 h | does not induce EP2 mRNA | increased the expression of EP4 | not expressed | markedly induced | markedly induced | no effect | no effect on EP4 mRNA levels | rapidly increased EP4 mRNA levels | 2 h |
